Literature values as cited in PMC2709231 (European Journal of Nuclear Medicine and Molecular Imaging, 2009).

Conditions: human, in vivo

## ^90Y-DTPA-(D)Glu^1-(Glu)5-Ala-Tyr-Gly-Trp-Met-Asp-Phe-NH2 [^90Y-DTPA-DGlu^1-minigastrin]
  Side effects of radionuclide therapy: serious side effects, including renal insufficiency and bone marrow toxicity
